This is an account of results in patent US20220296108A1, “METHOD AND APPARATUS FOR QUANTITATION OF MICROCIRCULATION” (Seoul National University Hospital, priority 2019, published 2022).

Test [1] concerns CLP mouse model. As to the kind of experiment: Histological analysis of the number of sequestered neutrophils (Ly6G+ cells) in Mac-1-inhibited CLP mouse model. Type of test: in vivo. The conditions noted are these: vs CLP mouse model (Fc) and normal group (Sham), FIG. 28B. The source says: Specifically, lung tissues were harvested after intravital imaging of the mouse models. The tissues were perfused and fixed with 4% paraformaldehyde and then further fixed overnight in 4% paraformaldehyde. For H&E (hematoxylin and eosin) staining, the fixed tissues were processed using standard procedures, embedded in paraffin and then sliced into 4-μm sections, followed by conventional H&E staining.

The test system of test [2] is CLP mouse model. As to the kind of experiment: Arterial blood gas analysis in CLP mouse model before and after abciximab. In kind it is in vivo. The conditions noted are these: post-Abc CLP mouse vs normal group (Sham). The procedure:
In addition, arterial blood gas analysis was performed to assess the oxygen partial pressure and carbon dioxide partial pressure in the arterial blood of the pre-Abc mouse model and the post-Abc mouse model. Specifically, a 1-mL syringe with a 22-gauge needle was coated with heparin and introduced into the left ventricle of the heart of the normal mouse model (Sham) (n=8), pre-Abc mouse model (Fc) (n=10) and post-Abc mouse model (Abc) (n=6). Then, about 200 μL of blood was sampled and analyzed with an i-STAT handheld blood analyzer (G3 cartridge, Abbott Point of Care Inc.). The mice were euthanized in a CO2 chamber right after the blood sampling.

The test system of test [3] is CLP mouse model. In words: Functional capillary ratio (FCR) by intravital lung imaging in Mac-1-inhibited CLP mouse model.
Method: CLP model was performed by a single experienced operator according to a previously described method. Specifically, 75% of the cecum of the LysM^GFP/+ mouse was ligated with 6-0 black silk and single puncture with a dual hole in the distal cecum was made with a 21-gauge needle. After the puncture, the cecum was gently squeezed to confirm the patency of the puncture hole for extrusion of feces. The cecum was replaced to the abdominal cavity and the abdominal incision was closed with 4-0 black silk. A normal group (sham group) underwent the same surgical procedure except the cecal ligation and puncture. […]
Specifically, three continuous laser modules (488 nm (MLD488, Cobolt), 561 nm (Jive, Cobolt) and 640 nm (MLD640, Cobolt)) were utilized as excitation light sources for multi-color fluorescence imaging. […] The fluorescence signals emitted from the lung of the mouse model on a XYZ translational 3D stage (3DMS, Sutter Instrument) were epi-detected by the objective lenses. De-scanned three-color fluorescence signals were spectrally divided by diachronic beam splitters (DBS4; FF560-Di01, DBS5; FF649-Di01, Semrock) and then detected by a photomultiplier (PMT; R9110, Hamamatsu) through bandpass filters (BPF1; FF02-525/50, BPF2; FF01-600/37, BPF3; FF01-685/40, Semrock). […]

abciximab: the “Number of sequestered neutrophils (Ly6G+ cells)” value in the test with CLP mouse model [1] was “recovered to a level comparable to that of the normal group”. Moreover, in the test with CLP mouse model [2] (FIG. 31A), the “Oxygen partial pressure in arterial blood” value is on record as “comparable to that of the normal group”. Further, in the test on CLP mouse model [2] (FIG. 31B), the “Carbon dioxide partial pressure in arterial blood” value is listed as “comparable to that of the normal group”. Besides, the “Functional capillary ratio (FCR) increase after vs before abciximab administration” value in the test with CLP mouse model [3] (CLP mouse imaged 6 hours after CLP (pre-Abc), then 30 minutes after abciximab (post-Abc)) was at least 2 times. In addition, the “Dead space and functional capillaries in pulmonary microcirculation imaging” value in the test on CLP mouse model [3] (CLP mouse, vs CLP mouse model (Fc), FIG. 27) is “dead space was decreased”.
